In patent EP0908457B1, “3-(1,2-benzisothiazol- and isoxazol-5-Y1)-2,4(1H,3H)-pyrimidinedione or thione and 3-(1,2-benzisothiazol- and isoxazol-5-y1)-4(3H)-pyrimidinone or thione herbicidal agents” (BASF AKTIENGESELLSCHAFT, priority 1997, dated 1999):

Columns and labels:
[1] = test system: Cyperus serotinus, Rottb.; assay: Preemergence weed control under flooded paddy conditions, CYPSE (Flatsedge); assay type: in vivo; details: for CYPSE: preemergence weeds, herbicidal effect rating 0-9, three to four weeks after treatment; for CYPSE herbicidal effect rating / herbicidal effect rating, CYPSE: preemergence; for CYPSE herbicidal effect rating: rated three to four weeks after treatment; for herbicidal effect rating, CYPSE: rated 3-4 weeks after treatment
[2] = test system: Monochoria vaginalis, Presl.; assay: Preemergence weed control under flooded paddy conditions, MOOVA (Monochoria); assay type: in vivo; details: flooded paddy; for MOOVA: preemergence weeds, herbicidal effect rating 0-9, three to four weeks after treatment; for MOOVA herbicidal effect rating / herbicidal effect rating, MOOVA: preemergence; for MOOVA herbicidal effect rating: rated three to four weeks after treatment; for herbicidal effect rating, MOOVA: rated 3-4 weeks after treatment
[3] = test system: Oryza sativa, (L.) Tebonnet; assay: Rice tolerance to post-transplant applications under flooded paddy conditions (Example 187), ORYSAT (Rice, Tebonnet); details: for ORYSAT: herbicidal effect rating 0-9, three to four weeks after treatment; for ORYSAT herbicidal effect rating: rated three to four weeks after treatment; for herbicidal effect rating ORYSAT: rated 3-4 weeks after treatment; on herbicidal effect rating ORYSAT: meaning of each grade not given here
Sagittaria pygmaea, L. = assay: Preemergence weed control under flooded paddy conditions, SAGPY (Arrowhead (Pygmaea)); assay type: in vivo; details: flooded paddy; for SAGPY: preemergence weeds, herbicidal effect rating 0-9, three to four weeks after treatment; for SAGPY herbicidal effect rating / herbicidal effect rating, SAGPY: preemergence; for SAGPY herbicidal effect rating: rated three to four weeks after treatment; for herbicidal effect rating, SAGPY: rated 3-4 weeks after treatment
Cyperus iria = assay: Preemergence weed control under flooded paddy conditions, CYPIR (Rice Flatsedge); assay type: in vivo; details: flooded paddy; for CYPIR: preemergence weeds, herbicidal effect rating 0-9, three to four weeks after treatment; for CYPIR herbicidal effect rating / herbicidal effect rating, CYPIR: preemergence; for CYPIR herbicidal effect rating: rated three to four weeks after treatment; for herbicidal effect rating, CYPIR: rated 3-4 weeks after treatment
[4] = test system: Echinochloa oryzoides (Ard.) Fritsch.; assay: Preemergence weed control under flooded paddy conditions, ECHORC (Watergrass (Calif.)); assay type: in vivo; details: flooded paddy; for ECHORC: preemergence weeds, herbicidal effect rating 0-9, three to four weeks after treatment; for ECHORC herbicidal effect rating / herbicidal effect rating, ECHORC: preemergence; for ECHORC herbicidal effect rating: rated three to four weeks after treatment; for herbicidal effect rating, ECHORC: rated 3-4 weeks after treatment

SMILES: CCOCOCc1nsc2ccc(-n3c(=O)cc(C(F)(F)F)n(C)c3=O)cc12 [Example 455, 2,4(1H,3H)-Pyrimidinedione, 3-(3-[(ethoxymethoxy)methyl]-1,2-benzisothiazol-5-yl}-1-methyl-6-(trifluoromethyl)-]
- CYPSE ([1]; 0.0320 kg/ha): 2.0
- CYPSE ([1]; 0.0620 kg/ha): 6.0
- CYPSE ([1]; 0.1250 kg/ha): 8.0
- CYPSE ([1]; 0.2500 kg/ha): 9.0
- MOOVA ([2]; 0.0320 kg/ha): 6.0
- MOOVA ([2]; 0.0620 kg/ha): 7.0
- MOOVA ([2]; 0.1250 kg/ha): 9.0
- MOOVA ([2]; 0.2500 kg/ha): 9.0
- ORYSAT ([3]; 0.0320 kg/ha): 6.0
- ORYSAT ([3]; 0.0620 kg/ha): 8.0
- ORYSAT ([3]; 0.1250 kg/ha): 9.0
- ORYSAT ([3]; 0.2500 kg/ha): 9.0
- SAGPY (Sagittaria pygmaea, L.; 0.0320 kg/ha): 4.0
- SAGPY (Sagittaria pygmaea, L.; 0.0620 kg/ha): 6.0
- SAGPY (Sagittaria pygmaea, L.; 0.1250 kg/ha): 7.0
- SAGPY (Sagittaria pygmaea, L.; 0.2500 kg/ha): 9.0
- CYPIR (Cyperus iria; 0.0320 kg/ha): 6.0
- CYPIR (Cyperus iria; 0.0620 kg/ha): 7.0
- CYPIR (Cyperus iria; 0.1250 kg/ha): 9.0
- CYPIR (Cyperus iria; 0.2500 kg/ha): 9.0
- ECHORC ([4]; 0.0320 kg/ha): 9.0
- ECHORC ([4]; 0.0620 kg/ha): 9.0
- ECHORC ([4]; 0.1250 kg/ha): 9.0
- ECHORC ([4]; 0.2500 kg/ha): 9.0

SMILES: CC(C)OP(=O)(Cc1nsc2ccc(-n3c(=O)cc(C(F)(F)F)n(C)c3=O)cc12)OC(C)C [Example 263, 1,2-Benzisothiazole-3-methanephosphonic acid, 5-[3,6-dihydro-3-methyl-2,6-dioxo-4-(trifluoromethyl)-1(2H)-pyrimidinyl]-, diisopropyl ester]
- CYPSE herbicidal effect rating ([1]; Rate 0.0320 kg/ha): 9.0
- CYPSE herbicidal effect rating ([1]; Rate 0.0620 kg/ha): 9.0
- CYPSE herbicidal effect rating ([1]; Rate 0.1250 kg/ha): 9.0
- CYPSE herbicidal effect rating ([1]; Rate 0.2500 kg/ha): 9.0
- MOOVA herbicidal effect rating ([2]; Rate 0.0320 kg/ha): 0.0
- MOOVA herbicidal effect rating ([2]; Rate 0.0620 kg/ha): 0.0
- MOOVA herbicidal effect rating ([2]; Rate 0.1250 kg/ha): 6.0
- MOOVA herbicidal effect rating ([2]; Rate 0.2500 kg/ha): 9.0
- ORYSAT herbicidal effect rating ([3]; Rate 0.0320 kg/ha): 0.0
- ORYSAT herbicidal effect rating ([3]; Rate 0.0620 kg/ha): 0.0
- ORYSAT herbicidal effect rating ([3]; Rate 0.1250 kg/ha): 0.0
- ORYSAT herbicidal effect rating ([3]; Rate 0.2500 kg/ha): 4.0
- SAGPY herbicidal effect rating (Sagittaria pygmaea, L.; Rate 0.0320 kg/ha): 0.0
- SAGPY herbicidal effect rating (Sagittaria pygmaea, L.; Rate 0.0620 kg/ha): 0.0
- SAGPY herbicidal effect rating (Sagittaria pygmaea, L.; Rate 0.1250 kg/ha): 0.0
- SAGPY herbicidal effect rating (Sagittaria pygmaea, L.; Rate 0.2500 kg/ha): 0.0
- CYPIR herbicidal effect rating (Cyperus iria; Rate 0.0320 kg/ha): 4.0
- CYPIR herbicidal effect rating (Cyperus iria; Rate 0.0620 kg/ha): 7.0
- CYPIR herbicidal effect rating (Cyperus iria; Rate 0.1250 kg/ha): 9.0
- CYPIR herbicidal effect rating (Cyperus iria; Rate 0.2500 kg/ha): 9.0
- ECHORC herbicidal effect rating ([4]; Rate 0.0320 kg/ha): 0.0
- ECHORC herbicidal effect rating ([4]; Rate 0.0620 kg/ha): 0.0
- ECHORC herbicidal effect rating ([4]; Rate 0.1250 kg/ha): 0.0
- ECHORC herbicidal effect rating ([4]; Rate 0.2500 kg/ha): 2.0

SMILES: CSCCCCOC(=O)COc1ccc(C)cc1-c1nsc2ccc(-n3c(=O)cc(C(F)(F)F)n(C)c3=O)cc12 [Example 518, Acetic acid, {{2-{5-[3,6-dihydro-3-methyl-2,6-dioxo-4-(trifluoromethyl)-1(2H)-pyrimidinyl]-1,2-benzisothiazol-3-yl}-p-tolyl}oxy}-, 4-(methylthio)butyl ester]
- herbicidal effect rating, CYPSE ([1]; Rate 0.0320 kg/ha): 0.0
- herbicidal effect rating, CYPSE ([1]; Rate 0.0620 kg/ha): 0.0
- herbicidal effect rating, CYPSE ([1]; Rate 0.1250 kg/ha): 0.0
- herbicidal effect rating, CYPSE ([1]; Rate 0.2500 kg/ha): 0.0
- herbicidal effect rating, MOOVA ([2]; Rate 0.0320 kg/ha): 4.0
- herbicidal effect rating, MOOVA ([2]; Rate 0.0620 kg/ha): 7.0
- herbicidal effect rating, MOOVA ([2]; Rate 0.1250 kg/ha): 9.0
- herbicidal effect rating, MOOVA ([2]; Rate 0.2500 kg/ha): 9.0
- herbicidal effect rating ORYSAT ([3]; Rate 0.0320 kg/ha): 1.0
- herbicidal effect rating ORYSAT ([3]; Rate 0.0620 kg/ha): 2.0
- herbicidal effect rating ORYSAT ([3]; Rate 0.1250 kg/ha): 4.0
- herbicidal effect rating ORYSAT ([3]; Rate 0.2500 kg/ha): 4.0
- herbicidal effect rating, SAGPY (Sagittaria pygmaea, L.; Rate 0.0320 kg/ha): 0.0
- herbicidal effect rating, SAGPY (Sagittaria pygmaea, L.; Rate 0.0620 kg/ha): 0.0
- herbicidal effect rating, SAGPY (Sagittaria pygmaea, L.; Rate 0.1250 kg/ha): 0.0
- herbicidal effect rating, SAGPY (Sagittaria pygmaea, L.; Rate 0.2500 kg/ha): 0.0
- herbicidal effect rating, CYPIR (Cyperus iria; Rate 0.0320 kg/ha): 0.0
- herbicidal effect rating, CYPIR (Cyperus iria; Rate 0.0620 kg/ha): 2.0
- herbicidal effect rating, CYPIR (Cyperus iria; Rate 0.1250 kg/ha): 2.0
- herbicidal effect rating, CYPIR (Cyperus iria; Rate 0.2500 kg/ha): 4.0
- herbicidal effect rating, ECHORC ([4]; Rate 0.0320 kg/ha): 0.0
- herbicidal effect rating, ECHORC ([4]; Rate 0.0620 kg/ha): 2.0
- herbicidal effect rating, ECHORC ([4]; Rate 0.1250 kg/ha): 4.0
- herbicidal effect rating, ECHORC ([4]; Rate 0.2500 kg/ha): 7.0

SMILES: Cn1c(C(F)(F)F)cc(=O)n(-c2ccc3snc(CS(=O)(=O)CC(=O)O)c3c2)c1=O [Example 282, Acetic acid, {{{5-[3,6-dihydro-3-methyl-2,6-dioxo-4-(trifluoromethyl)-1(2H)-pyrimidinyl]-1,2-benzisothiazol-3-yl}methyl}sulfonyl}-]
- CYPSE herbicidal effect rating ([1]; Rate 0.0320 kg/ha): 0.0
- CYPSE herbicidal effect rating ([1]; Rate 0.0620 kg/ha): 0.0
- CYPSE herbicidal effect rating ([1]; Rate 0.1250 kg/ha): 0.0
- CYPSE herbicidal effect rating ([1]; Rate 0.2500 kg/ha): 0.0
- CYPSE herbicidal effect rating ([1]; Rate 0.5000 kg/ha): 0.0
- MOOVA herbicidal effect rating ([2]; Rate 0.0320 kg/ha): 6.0
- MOOVA herbicidal effect rating ([2]; Rate 0.0620 kg/ha): 9.0
- MOOVA herbicidal effect rating ([2]; Rate 0.1250 kg/ha): 9.0
- MOOVA herbicidal effect rating ([2]; Rate 0.2500 kg/ha): 9.0
- MOOVA herbicidal effect rating ([2]; Rate 0.5000 kg/ha): 9.0
- ORYSAT herbicidal effect rating ([3]; Rate 0.0320 kg/ha): 2.0
- ORYSAT herbicidal effect rating ([3]; Rate 0.0620 kg/ha): 3.0
- ORYSAT herbicidal effect rating ([3]; Rate 0.1250 kg/ha): 4.0
- ORYSAT herbicidal effect rating ([3]; Rate 0.2500 kg/ha): 4.0
- ORYSAT herbicidal effect rating ([3]; Rate 0.5000 kg/ha): 0.0
- SAGPY herbicidal effect rating (Sagittaria pygmaea, L.; Rate 0.0320 kg/ha): 0.0
- SAGPY herbicidal effect rating (Sagittaria pygmaea, L.; Rate 0.0620 kg/ha): 0.0
- SAGPY herbicidal effect rating (Sagittaria pygmaea, L.; Rate 0.1250 kg/ha): 0.0
- SAGPY herbicidal effect rating (Sagittaria pygmaea, L.; Rate 0.2500 kg/ha): 0.0
- SAGPY herbicidal effect rating (Sagittaria pygmaea, L.; Rate 0.5000 kg/ha): 0.0
- CYPIR herbicidal effect rating (Cyperus iria; Rate 0.0320 kg/ha): 4.0
- CYPIR herbicidal effect rating (Cyperus iria; Rate 0.0620 kg/ha): 8.0
- CYPIR herbicidal effect rating (Cyperus iria; Rate 0.1250 kg/ha): 8.0
- CYPIR herbicidal effect rating (Cyperus iria; Rate 0.2500 kg/ha): 8.0
- CYPIR herbicidal effect rating (Cyperus iria; Rate 0.5000 kg/ha): 9.0
- ECHORC herbicidal effect rating ([4]; Rate 0.0320 kg/ha): 0.0
- ECHORC herbicidal effect rating ([4]; Rate 0.0620 kg/ha): 0.0
- ECHORC herbicidal effect rating ([4]; Rate 0.1250 kg/ha): 1.9
- ECHORC herbicidal effect rating ([4]; Rate 0.2500 kg/ha): 0.0
- ECHORC herbicidal effect rating ([4]; Rate 0.5000 kg/ha): 0.0
